Laboratory results taken from US9402827B2, “Treatment of gout” (ARDEA BIOSCIENCES, INC., priority 2010, dated 2016).

Tests used:
[1] = system: IL-1β; experiment: Effect on IL-1β release after stimulation with ATP or MSU crystals (Example 1, FIG. 1); format: cell-based; settings: within 1 hour of stimulation with ATP (5 mM) or 1 μg MSU crystals
Method: FIG. 1 illustrates the effect of Lesinurad on IL-1β release within 1 hour of stimulation with ATP (5 mM) or 1 μg MSU (monosodium urate) crystals (compd1=Lesinurad; C-1inh=caspase-1 inhibitor).
Activation of the inflammasome results in the release of preformed IL-1, which goes on to activate other targets as well as increase the production of IL-1 itself.

[2] = system: gout flares; experiment: Phase II clinical trial, gout dose response study: incidence of gout flares (Example 4); format: in vivo, human
Method: Purpose: To compare the proportion of subjects whose serum urate (sUA) level is <6.0 mg/dL after 28 days of dosing by treatment group. Official Title: Randomized, Double-Blind, Multicenter, Placebo-Controlled, Safety and Efficacy Study of Lesinurad Versus Placebo in the Treatment of Hyperuricemia in Patients With Gout Experimental dosage form: 200 mg capsule of Lesinurad, with appropriate pharmaceutically acceptable excipients Design: • Control: Placebo Control • Endpoint Classification: Safety/Efficacy Study • Intervention Model: Parallel Assignment • Masking: Double Blind (Subject, Caregiver, Investigator, Outcomes Assessor) • Primary Purpose: Treatment Primary Outcome Measures: Compare the proportion of subjects whose serum urate (sUA) level is <6.0 mg/dL after 28 days of dosing by treatment group. […] [table] Inclusion Criteria: • Male or post-menopausal or surgically sterile female. • Hyperuricemic (i.e., screening sUA≧8 mg/dL). • Meets criteria for the diagnosis of gout as per the American Rheumatism Association (ARA) Criteria for the Classification of Acute Arthritis of Primary Gout (see Appendix B). • Willing and able to give informed consent and adhere to visit/protocol schedules (informed consent must be given before the first study procedure is performed).

[3] = system: IL-1β; experiment: In vitro primary human monocyte assay, IL-1β; format: cell-based; settings: primary human monocytes, FIG. 4A
Method: Blood (50-60 ml) was collected in Heparin vaccutainers (BD vaccutainer, Cat No-367874, Sodium Heparin, 10 ml tube; each holding ˜8-10 ml blood), which was immediately mixed to prevent coagulation. Accuspin-Histopaque 1077 (Sigma Aldrich cat no-A7054) was allowed to reach room temperature and diluted blood 1:1 in DPBS (Dulbecco's Phosphate-Buffered Saline (1×), liquid—Invitrogen, 14040-133), mixed by pipetting. The tubes were centrifuged (800 g; 30 seconds; room temp) to ensure all the Histopaque 1077 was below the high density polyethylene barrier.
Diluted blood (50 ml) was added to the upper chamber of each ACCUSPIN tube and centrifuged at room temp for 10 minutes at 1000×g or 15 minutes at 800×g, (brakes were off for this step; acc=1, dcl=1). PBMCs were collected from the PBS/Ficoll interphase with a transfer pipette and transferred to a new 50 mL tube. […]
Supernatant was decanted and 5 mL of RBC lysis solution added to the pellet and mixed well. […] The supernatant was discarded, resuspended in RPMI complete media, and the cells counted.
The hPBM cells isolated in step A were counted, centrifuged (300 g; 10 min) and the supernatant aspirated. […]
The centrifuged cells were then resuspended in 5 ml of MACS buffer and applied to the column. […] Cells were spun down (300 g, 5 min; supernatant discarded), resuspended in RPMI complete media and counted.

[4] = system: IL-1β; experiment: In vitro THP-1 (human cell) assay, IL-1β; format: cell-based; settings: differentiated THP-1 cells, 6 hours, FIG. 3B
Method: Uric acid (2 g, Sigma, Cat #U0881, Log S89329-419) was heated in a flask at 200° C. for 2 hours. Endotoxin free water (396 mL) followed by aqueous sodium hydroxide solution (2.375 mL of 5N or 1.19 mL 10N) were added and heated on a stir plate until the uric acid dissolved. […] The solution was stirred at room temperature for 24 hours and then centrifuged at 1000 g for 10 min. The supernatant was discarded and resuspended in PBS and centrifuged at 1000 g for 10 min; this step was repeated twice. The washed crystals were heated at 60° C. until dry and then autoclaved at 200° C. for 2 hours. The crystals were then weighed and resuspended in PBS at a concentration of 26 mg/ml.
THP-1 cells were differentiated with 0.5 μM of phorbol myristate acetate (PMA) incubated for 3 hours. Cells were then spun down and washed once with HBSS. 1.25×10^6/mL cells were plated in white clear bottom white 96 well plate in 100 μL volume and incubated overnight. The next day the media was aspirated from the wells. 100 μL of 1× Optimem along with the compounds were added.

[5] = system: MSU-induced knee joint swelling; experiment: In vivo MSU-induced inflammation, rat knee joint study (Example 3C); set-up: species or system Sprague-Dawley rats
Method: [table] Groups 1 and 2 were orally dosed with Vehicle (sterile water) once daily for seven days from Day 1. […] Groups 6 and 7 were orally dosed with Lesinurad once daily for seven days from Day 1; Group 7 also received colchicine administered subcutaneously on Day 7. […] The injection was performed from the anterior aspect of the knee joint, which was slightly extended and flexed. […] Four hours after MSU administration, the rats were anesthetized, the diameter of right knee joints were measured with calipers; surface temperature for right knees were measured. Synovial lavage fluid from the knee was collected by injecting phosphate buffered saline with 1% BSA (0.2 mL) into the joint cavity, the fluid then collected, centrifuged and the supernatants stored at −80° C.

Compound: O=C(O)CSc1nnc(Br)n1-c1ccc(C2CC2)c2ccccc12 [Lesinurad, 2-(5-bromo-4-(4-cyclopropylnaphthalen-1-yl)-4H-1,2,4-triazol-3-ylthio)acetic acid]
- IL-1 release [1]: blocks IL-1 release very early
- Mean Duration of Flares (by dose at time of flare) ([2]; 200 mg at time of flare): 4 days
- % of patients with Flares by Dose at Time of Flare ([2]; 200 mg at time of flare (6/96)): 6% (6/96)
- Mean Duration of Flares (by dose at time of flare) ([2]; 400 mg at time of flare): 2 days
- % of patients with Flares by Dose at Time of Flare ([2]; 600 mg at time of flare (3/32)): 9% (3/32)
- Mean Duration of Flares ([2]; Randomized dose group 200 mg): 4 days
- % Patients with Flares ([2]; Randomized dose group 200 mg, N 31): 6%
- Mean Duration of Flares ([2]; Randomized dose group 400 mg): 3.8 days
- % Patients with Flares ([2]; Randomized dose group 600 mg, N 32): 13%
- IC50 ([3]; Monocyte): ~50 µM
- IL-1β inhibition ([3]; 100 uM, 50 uM and 25 uM): dose dependent IL-1β inhibition
- IC50 [4]: ~30 µM
- Average increase in knee diameter ([5]; Lesinurad 60 mg/kg p.o. once daily Day1-Day7, 4 h after MSU, p < 0.001 vs Vehicle): 0.46 mm
- MSU-induced increase in knee diameter, in words ([5]; Lesinurad 60 mg/kg/day): significantly decreased the MSU-induced increase in knee diameter
